Experiment [1] has as its system snapbean plants. Put plainly: Defoliation of snapbean plants with various ethylene releasing agents (Example XVI, Table M). Type of experiment: in vivo, Phaseolus vulgaris var. Cranberry. The method, then:
(§1) Solutions of the test compounds and compositions identified in Table C below were prepared by dissolving the compounds in acetone/water (50:50 volume/volume) containing 0.1 percent volume/volume of Triton X-100 surfactant commercially available from Rhom and Haas Company, Philadelphia, Pennsylvania. As detailed below, these solutions of the test compounds and compositions were applied to snapbean plants at a concentration of 0.25 pounds of each active ingredient per acre (0.28 kg/ha) or 0.50 pounds of each active ingredient per acre (0.56 kg/ha). The compositions were applied to the snapbean plants as a mixture. Ethephon is commercially available from Union Carbide Agricultural Products Company, Inc., Research Triangle Park, North Carolina.
(§2) Into 13.5 centimeter diameter plastic pots containing a potting soil mix, i.e., one-third sandy loam soil, one-third peat moss and one-third perlite by volume, were sown three snapbean seeds (Phaseolus vulgaris var. Cranberry). Five to seven days after planting, the plants were thinned to one plant per pot. Ten to fourteen days after planting at the time of full expansion of the primary leaves, each concentration of the test compounds and compositions identified in […] (each pot sprayed with a volume equivalent to 180 gallons per acre) - i.e. 1683 l/ha was applied to three snapbean plants as a foliar spray by use of an aspirated spray apparatus set at 10 psig air pressure (517 mmHg). As a control, a water-acetone solution containing no test compound or composition was also sprayed on three snapbean plants. When dry, all or the plants were placed in a greenhouse at a temperature of 80°F ± 5°F (27°C ± 3°C) and humidity of 50 percent ± 5 percent. At 96 hours after treatment, percent defoliation of the snapbean plants was determined by visual observation. The values obtained For the control and each test compound and composition were averaged to obtain the results in Table C.
In a manner similar to the procedure described in Example VI , the defoliation effect on snapbean plants was determined for representative synergistic compositions at various rates of application using various ethylene releasing agents identified in Table M below. The ethylene releasing agents used in […] are known materials which can be prepared by conventional methods.

Experiment [2] deals with cotton. The experiment in a line: Defoliation of cotton at various rates (Example XII, Table I). Type of experiment: in vivo. Conditions: Rate 0.5 Pounds per Acre, alone. The protocol: (§3) Solutions of the test compounds and compositions identified in Table F were prepared by dissolving the compounds in acetone/water (50:50 volume/volume) containing 0.1 percent volume/volume of Surfel® spray adjuvant commercially available from Union Carbide Corporation, Danbury, Connecticut. As detailed below, these solutions of test compounds and compositions were applied to cotton plants at a concentration of 0.5 pounds of each active ingredient per acre (0,6 kg/ha) or 2.0 pounds of active ingredient per acre (2,2 kg/ha). The compositions were applied to cotton as mixtures.
(§4) The above solutions were applied to cotton plants growing under field conditions at a spray volume equivalent to 100 gallons per acre 935 l/ha) by use of a carbon dioxide backpack sprayer set at about 30 psig air pressure (2 bar). The application timing coincided with a cotton maturity phase equivalent to about 40 percent open bolls. As a control, a water-acetone solution containing no test compound or composition was also sprayed on the cotton plants. At four days after treatment, percent defoliation of the cotton plants was determined by visual observation. At 14 days after treatment, percent boll opening was determined by visual observation of the number of open bolls/total number of bolls. The percent defoliation and percent boll opening values obtained for the control and each of the test compounds and compositions are reported in Table F as the average of three replications. TABLE F
In a manner similar to the procedure described in Example IX , the defoliation effect on cotton was determined for representative synergistic compositions at various rates of application.

Experiment [3] deals with snapbean plants. The experiment in a line: Defoliation of snapbean plants, foliar spray (Example VI, Table C). Type of experiment: in vivo, Phaseolus vulgaris var. Cranberry. Conditions: Phaseolus vulgaris, foliar spray, 96 hours after treatment, read-out: Percent Defoliation; for pest or weed control at 280.212 g/ha: Rate 0.25 Pounds per Acre; for pest or weed control at 560.425 g/ha: Rate 0.50 Pounds per Acre. The method, then: as §1, §2

Experiment [4] deals with snapbean plants. Put plainly: Abscission of snapbean plant leaves with ethylene gas exposure (Example XVII, Table N). Format: in vivo, Phaseolus vulgaris var. Cranberry.
Experiment [5] deals with cotton. The experiment in a line: Sequential applications, defoliation of cotton (Example XI, Table H). Type of experiment: in vivo. As to conditions: alone. The method, then: In a manner similar to the procedure described in Example VI , the defoliation effect on snapbean plants was determined for representative synergistic compositions using both combination (tank mix) and sequential application methods. In the sequential application method, the second compound was applied 78 hours after the first compound. TABLE E
In a manner similar to the procedure described in Example VIII , the defoliation effect on cotton was determined for representative synergistic compositions using sequential application. Ethephon applications were made 7 days after application of the particular malonic acid derivative compound. TABLE H

The next experiment relates to cotton plants. The experiment in a line: Defoliation and boll opening of cotton under field conditions (Example IX, Table F). Format: in vivo. On the set-up: key to Percent Boil Opening: *: Percent boll opening essentially the same as the control as determined by visual observation. Conditions: Rate 2.0 Pounds per Acre. The protocol: as §3, §4
Another experiment relates to rank growth cotton. The experiment in a line: Defoliation of cotton (rank growth) (Example X, Table G). Conditions: Rate 2.0 Pounds per Acre. Format: in vivo. The method, then:
as §3, §4
In a manner similar to the procedure described in Example IX , the defoliation effect on rank growth cotton was determined for representative synergistic compositions at various rates of application. […] TABLE G

For another experiment, the system named is cotton plant. Put plainly: Regrowth of cotton following defoliation, DEF treated plant as standard (Example XIV, Table K). Type of experiment: in vivo. Conditions: regrowth relative to DEF standard (43 percent), Rate 0.5 Pounds per Acre, 30 days after treatment. The protocol: as §3, §4
In a manner similar to the procedure described in Example IX , the effect of cotton regrowth after defoliation was determined for representative synergistic compositions at various rates of application. The percent regrowth inhibition and stimulation in Table R below were determined by visual observation based on the percent of a cotton plant having regrowth using a DEF treated cotton plant as the standard. DEF is commercially available from Mobay Chemical Corporation, Kansas City, Missouri. The average regrowth of a cotton plant treated with DEF was 43 percent. As used in Table R, percent regrowth inhibition resulted from a cotton plant having a regrowth percentage less than 43 percent (DEF standard), and percent regrowth stimulation resulted from a cotton plant having a regrowth percentage greater than 43 percent. The percent regrowth inhibition and stimulation were determined 30 days after treatment.

Experiment [6] concerns cotton. The experiment in a line: Defoliation of cotton at various rates (Example XIII, Table J). Type of experiment: in vivo. Conditions: alone. The method, then:
as §3, §4
In a manner similar to the procedure described in Example IX , the defoliation effect on cotton was determined for representative synergistic compositions at various rates of application. TABLE J

[7] abbreviates: Concentration 125 ppm foliar spray.
[8] abbreviates: Concentration 250 ppm foliar spray.
The mark [9] stands for this setting: Concentration 0.1 ppm ethylene gas.

The structures appear in SMILES notation.

Broadly, the inhibition is the share of the control response that was lost under treatment.

For `O=P(O)(CCCl)OCCCl` [2-Chloroethyl ester of 2-chloroethylphosphonic acid], the “Percent Defoliation” value in the experiment on snapbean plants [1] (Rate 0.125 Pounds per Acre), in the experiment with snapbean plants [1] (Rate 0.25 Pounds per Acre) and in the experiment with snapbean plants [1] (Rate 0.50 Pounds per Acre) was 0% each time.

Consider `NP(N)(=O)CCCl` [2-Chloroethylphosphonic diamide], for which the “Percent Defoliation” value with snapbean plants [1] (Rate 0.125 Pounds per Acre), in the experiment with snapbean plants [1] (Rate 0.25 Pounds per Acre) and in the experiment with snapbean plants [1] (Rate 0.50 Pounds per Acre) was 0% in each case.

For the compound `CCOC(=O)C1(C(=O)Nc2cc(Cl)c(Cl)cc2C)CC1` [Compound 77, ethyl 1-(2-methyl-4,5-dichlorophenylaminocarbonyl)cyclopropanecarboxylate], the “Percent Defoliation” value in the experiment on cotton [2] stood at 0%.

For the compound `CCOC(=O)C1(C(=O)Nc2ccc(Cl)cc2Cl)CC1` [Compound 80], in the experiment on snapbean plants [3], the pest or weed control at 280.212 g/ha came out at 0% and the pest or weed control at 560.425 g/ha came out at 0%.

`CCOC(=O)C1(C(=O)Nc2ccc(Cl)cc2F)CC1` [Compound 82]: in the experiment on snapbean plants [3], the pest or weed control at 280.212 g/ha turned out to be 0% and the pest or weed control at 560.425 g/ha was determined as 0%.

On to `CCOC(=O)C1(C(=O)Nc2ccc(Br)cc2Cl)CC1` [Compound 88], for which, in the experiment with snapbean plants [3], the pest or weed control at 280.212 g/ha came out at 0% and the pest or weed control at 560.425 g/ha amounted to 0%.

With `CCOC(=O)C1(C(=O)Nc2ccc(Br)c(Cl)c2)CC1` [Compound 90], in the experiment on snapbean plants [3], the pest or weed control at 280.212 g/ha amounted to 0% and the pest or weed control at 560.425 g/ha came out at 0%.

With `Cc1cc(Cl)c(Cl)cc1NC(=O)C1(C(=O)O)CC1` [Compound 110, 1-(2-methyl-4,5-dichlorophenylaminocarbonyl)cyclopropanecarboxylic acid], in the experiment on cotton [2], the “Percent Defoliation” value amounted to 0%.

With `Cc1cc(Br)ccc1NC(=O)C1(C(=O)O)CC1` [Compound 111], the results for the “Percent Abscission 48 Hours” value in the experiment on snapbean plants [4] (setting [7]) and in the experiment on snapbean plants [4] (setting [8]) were 0% and 33%, respectively. For the same compound, the “Percent Abscission 96 Hours” value with snapbean plants [4] (setting [7]) is given as 17%; with snapbean plants [4] (setting [8]) it was 50%. Besides, the “Percent Defoliation” value with cotton [5] (Rate 0.5 Pounds per Acre) came to 0%; in the experiment on cotton [5] (Rate 1.0 Pounds per Acre) it was 0%; with cotton plants (field conditions, four days after treatment), 0%; in the experiment with rank growth cotton it was 0%; in the experiment with snapbean plants [1] (Rate 0.125 Pounds per Acre), 0%; in the experiment with snapbean plants [1] (Rate 0.25 Pounds per Acre) it was 0%. The “Percent Defoliation” value in the experiment with snapbean plants [1] (Rate 0.50 Pounds per Acre), in the experiment on cotton [6] (Rate 0.25 Pounds per Acre) and in the experiment on cotton [6] (Rate 0.5 Pounds per Acre) was 0% each time. Also, the “Percent Boil Opening” value in the experiment with cotton plants (14 days after treatment, result given by footnote symbol, control 41) was “*”. In addition, the pest or weed control at 280.212 g/ha with snapbean plants [3] came out at 0%. Besides, the pest or weed control at 560.425 g/ha in the experiment with snapbean plants [3] was 0%. Moreover, in the experiment with cotton plant (Gossypium hirsutum, 720 h, read-out: Percent Inhibition), the inhibition at 560.425 g/ha was found to be 0%. The “Percent Stimulation” value in the experiment with cotton plant is on record as 0%.

For the compound `O=C(O)C1(C(=O)Nc2cc(Cl)c(Cl)cc2Cl)CC1` [Compound 112], in the experiment on snapbean plants [3], the pest or weed control at 280.212 g/ha was determined as 0% and the pest or weed control at 560.425 g/ha was determined as 0%.

On to `O=C(O)C1(C(=O)Nc2cc(Cl)ccc2Cl)CC1` [Compound 113], for which, in the experiment on snapbean plants [3], the pest or weed control at 280.212 g/ha came out at 0% and the pest or weed control at 560.425 g/ha turned out to be 0%.

In the case of `O=C(O)C1(C(=O)Nc2ccc(Cl)cc2Cl)CC1` [Compound 114], in the experiment on snapbean plants [3], the pest or weed control at 280.212 g/ha was found to be 0% and the pest or weed control at 560.425 g/ha was found to be 0%.

As to `O=C(O)C1(C(=O)Nc2ccc(Cl)cc2F)CC1` [Compound 115], in the experiment on snapbean plants [3], the pest or weed control at 280.212 g/ha is 0% and the pest or weed control at 560.425 g/ha was 0%.

For the compound `O=C(O)C1(C(=O)Nc2ccc(Cl)cc2)CC1` [Compound 116], in the experiment on snapbean plants [3], the pest or weed control at 280.212 g/ha is 0% and the pest or weed control at 560.425 g/ha worked out at 0%.

On to `O=C(O)C1(C(=O)Nc2ccc(Br)cc2)CC1` [Compound 117], for which, in the experiment on snapbean plants [3], the pest or weed control at 280.212 g/ha worked out at 0% and the pest or weed control at 560.425 g/ha was 0%.

Consider `O=C(O)C1(C(=O)Nc2ccc(Br)cc2Br)CC1` [Compound 120], for which, in the experiment on snapbean plants [3], the pest or weed control at 280.212 g/ha turned out to be 0% and the pest or weed control at 560.425 g/ha is 0%.

Take `O=C(O)C1(C(=O)Nc2ccc(Br)cc2Cl)CC1` [Compound 121]: in the experiment on snapbean plants [3], the pest or weed control at 280.212 g/ha came to 0% and the pest or weed control at 560.425 g/ha is 0%.

In the case of `O=C(O)C1(C(=O)Nc2ccc(Cl)cc2Br)CC1` [Compound 122], in the experiment with snapbean plants [3], the pest or weed control at 280.212 g/ha amounted to 0% and the pest or weed control at 560.425 g/ha was determined as 0%.

Consider `O=C(O)C1(C(=O)Nc2ccc(Br)c(Cl)c2)CC1` [Compound 123], for which, in the experiment on snapbean plants [3], the pest or weed control at 280.212 g/ha was 0% and the pest or weed control at 560.425 g/ha was 0%.

As for `C=C` [Ethylene Gas, ethylene, reference compound], in the experiment on snapbean plants [4] (setting [9]), the “Percent Abscission 48 Hours” value is listed as 0% and the “Percent Abscission 96 Hours” value was determined as 0%.
